Entries after “also recorded” stand apart in the source; their conditions may differ.
Assays:
mice [1] = experiment: Tail flick acute heat nociception assay, reversal of morphine analgesia; assay type: in vivo, mouse; conditions: morphine 20mg/kg i.p., 50°C water bath
mice [2] = experiment: Conditioned place aversion in morphine tolerant mice; assay type: in vivo, mouse

CN1CC[C@]23c4c5ccc(O)c4O[C@H]2[C@@H](O)C=C[C@H]3[C@H]1C5 [morphine]
Tail flick latency (mice [1]): significantly increased

C=CCN1CC[C@]23c4c5ccc(O)c4O[C@H]2C(=O)CC[C@@]3(O)[C@H]1C5 [naloxone]
CPA score (Test - Pretest) (mice [2]): avoided the treatment compartment to a greater extent
Time spent in antagonist-paired (withdrawal precipitation) chamber (mice [2]; after conditioning versus pre-treatment): marked decrease; also recorded: significantly less time
